Reference: paper PMC9278120, “Epitope alteration by small molecules and applications in drug discovery” (Chemical Science, 2022)

Columns and labels:
amyloid beta (Aβ1–40) [1] = target: T1, amyloid beta (Aβ1–40) (Homo sapiens, UniProt P05067); assay: FRET titration of ternary complex with 4G8 and PE-labelled secondary antibody; dot blot; fluorescence probe in competition; format: binding; parameters: gene APP; Aβ1–40 monomers (also oligomers and aggregates); with 4G8 antibody
amyloid beta (Aβ1–40) [2] = target: T1, amyloid beta (Aβ1–40); assay: fluorescence competition with CRANAD-3; also antibody dot blot, MSD, Simoa and ThT aggregation assay; format: binding; parameters: gene APP; Aβ1–40 monomers
amyloid beta (Aβ1–40) [3] = target: T1, amyloid beta (Aβ1–40); assay: concentration-dependent 4G8 dot blot (one-site binding fit); ANS fluorescence; FRET; MSD/Simoa; parameters: gene APP; Aβ1–40; fragment Aβ17–24 also tested by ANS; with 4G8 antibody

T1 sequence (P05067 672-711): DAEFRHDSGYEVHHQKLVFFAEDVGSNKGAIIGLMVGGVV

Molecule: CCN(CC)c1ccc(/C=C/C2=CC(/C=C/c3ccc(N(CC)CC)nc3)=[O+][B-](F)(F)O2)cn1 [CRANAD-3]
- FRET titration of ternary complex with 4G8 and PE-labelled secondary antibody; d (amyloid beta (Aβ1–40) [1]): enhanced antibody recognition was due to the formation of the ternary complex of CRANAD-3, Aβs and 4G8 antibody

Molecule: Cc1ccc(NC(=O)Nc2cc(C(F)(F)F)ccc2F)cc1Nc1ccc2c(c1)NC(=O)/C2=C\c1ccc[nH]1 [GNF-5837]
- Ki (amyloid beta (Aβ1–40) [2]): 4.16 ± 1.04 nM

Molecule: CRANAD-17
- EC50 (amyloid beta (Aβ1–40) [3]): 121 nM
